From patent US7202280B2, “Methods for the treatment and prevention of pancreatitis and for induction of liver regeneration” (priority 2002, dated 2007)

Tested on: syngenic and metallothionein-SSAT mice
Assay: Hepatic, pancreatic and renal polyamine concentration in syngenic and metallothionein-SSAT mice after analogue
Type: in vivo, mouse
Conditions: 24 h before sacrifice
Procedure: α-methylspermidine, Bis-α-methylspermine and α-methylspermine were administered in saline. […] The data are expressed as means ±S.D. For statistical analysis, the two-tailed Student's t test was used.

[1] = Tg (transgenic) mice, 12.5 mg/kg
[2] = Tg (transgenic) mice, 37.5 mg/kg

CC(N)CCNCCCCNCCCN (stereo not drawn) [α-methylspermine, 1-methylspermine]
hepatic concentration, α-Methylspermine (Sg (syngenic) mice, 12.5 mg/kg): 470.60 pmoles/mg tissue wet weight | hepatic polyamine concentration, N^1-Acetylspermidine (Sg (syngenic) mice, 12.5 mg/kg): 37.49 pmoles/mg tissue wet weight | hepatic polyamine concentration, Putrescine (Sg (syngenic) mice, 12.5 mg/kg): 39.46 pmoles/mg tissue wet weight | hepatic polyamine concentration, Spermidine (Sg (syngenic) mice, 12.5 mg/kg): 669.94 pmoles/mg tissue wet weight | hepatic polyamine concentration, Spermine (Sg (syngenic) mice, 12.5 mg/kg): 568.21 pmoles/mg tissue wet weight | pancreatic polyamine concentration, N^1-Acetylspermidine (Sg (syngenic) mice, 12.5 mg/kg): 56.32 pmoles/mg tissue wet weight | pancreatic polyamine concentration, N^8-Acetylspermidine (Sg (syngenic) mice, 12.5 mg/kg): 17.17 pmoles/mg tissue wet weight | pancreatic polyamine concentration, Putrescine (Sg (syngenic) mice, 12.5 mg/kg): 80.74 pmoles/mg tissue wet weight | pancreatic polyamine concentration, Spermidine (Sg (syngenic) mice, 12.5 mg/kg): 7952.04 pmoles/mg tissue wet weight | pancreatic polyamine concentration, Spermine (Sg (syngenic) mice, 12.5 mg/kg): 1048.44 pmoles/mg tissue wet weight | renal concentration, α-Methylspermine (Sg (syngenic) mice, 12.5 mg/kg): 197.48 ± 6.80 pmoles/mg tissue wet weight | renal polyamine concentration, N^1-Acetylspermidine (Sg (syngenic) mice, 12.5 mg/kg): 46.16 pmoles/mg tissue wet weight | renal polyamine concentration, N^8-Acetylspermidine (Sg (syngenic) mice, 12.5 mg/kg): 24.91 pmoles/mg tissue wet weight | renal polyamine concentration, Putrescine (Sg (syngenic) mice, 12.5 mg/kg): 48.17 pmoles/mg tissue wet weight | renal polyamine concentration, Spermidine (Sg (syngenic) mice, 12.5 mg/kg): 312.55 pmoles/mg tissue wet weight | renal polyamine concentration, Spermine (Sg (syngenic) mice, 12.5 mg/kg): 247.41 pmoles/mg tissue wet weight | hepatic concentration, α-Methylspermine (Sg (syngenic) mice, 25 mg/kg): 420.20 pmoles/mg tissue wet weight | hepatic polyamine concentration, Putrescine (Sg (syngenic) mice, 25 mg/kg): 44.18 pmoles/mg tissue wet weight | hepatic polyamine concentration, Spermidine (Sg (syngenic) mice, 25 mg/kg): 1015.51 pmoles/mg tissue wet weight | hepatic polyamine concentration, Spermine (Sg (syngenic) mice, 25 mg/kg): 411.06 pmoles/mg tissue wet weight | pancreatic polyamine concentration, N^1-Acetylspermidine (Sg (syngenic) mice, 25 mg/kg): 19.45 pmoles/mg tissue wet weight | pancreatic polyamine concentration, N^8-Acetylspermidine (Sg (syngenic) mice, 25 mg/kg): 24.47 pmoles/mg tissue wet weight | pancreatic polyamine concentration, Putrescine (Sg (syngenic) mice, 25 mg/kg): 50.98 pmoles/mg tissue wet weight | pancreatic polyamine concentration, Spermidine (Sg (syngenic) mice, 25 mg/kg): 5421.66 pmoles/mg tissue wet weight | pancreatic polyamine concentration, Spermine (Sg (syngenic) mice, 25 mg/kg): 729.10 pmoles/mg tissue wet weight | renal concentration, α-Methylspermine (Sg (syngenic) mice, 25 mg/kg): 228.87 ± 6.44 pmoles/mg tissue wet weight | renal polyamine concentration, N^1-Acetylspermidine (Sg (syngenic) mice, 25 mg/kg): 59.48 pmoles/mg tissue wet weight | renal polyamine concentration, N^8-Acetylspermidine (Sg (syngenic) mice, 25 mg/kg): 25.80 pmoles/mg tissue wet weight | renal polyamine concentration, Putrescine (Sg (syngenic) mice, 25 mg/kg): 122.64 pmoles/mg tissue wet weight | renal polyamine concentration, Spermidine (Sg (syngenic) mice, 25 mg/kg): 215.41 pmoles/mg tissue wet weight | renal polyamine concentration, Spermine (Sg (syngenic) mice, 25 mg/kg): 272.18 pmoles/mg tissue wet weight | hepatic concentration, α-Methylspermine (Sg (syngenic) mice, 37.5 mg/kg): 510.72 pmoles/mg tissue wet weight | hepatic polyamine concentration, Spermidine (Sg (syngenic) mice, 37.5 mg/kg): 830.89 pmoles/mg tissue wet weight | hepatic polyamine concentration, Spermine (Sg (syngenic) mice, 37.5 mg/kg): 485.75 pmoles/mg tissue wet weight | pancreatic polyamine concentration, Putrescine (Sg (syngenic) mice, 37.5 mg/kg): 36.15 pmoles/mg tissue wet weight | pancreatic polyamine concentration, Spermidine (Sg (syngenic) mice, 37.5 mg/kg): 5806.20 pmoles/mg tissue wet weight | pancreatic polyamine concentration, Spermine (Sg (syngenic) mice, 37.5 mg/kg): 804.72 pmoles/mg tissue wet weight | renal concentration, α-Methylspermine (Sg (syngenic) mice, 37.5 mg/kg): 245.67 ± 38.85 pmoles/mg tissue wet weight | renal polyamine concentration, N^1-Acetylspermidine (Sg (syngenic) mice, 37.5 mg/kg): 30.29 pmoles/mg tissue wet weight | renal polyamine concentration, N^8-Acetylspermidine (Sg (syngenic) mice, 37.5 mg/kg): 24.30 pmoles/mg tissue wet weight | renal polyamine concentration, Putrescine (Sg (syngenic) mice, 37.5 mg/kg): 59.01 pmoles/mg tissue wet weight | renal polyamine concentration, Spermidine (Sg (syngenic) mice, 37.5 mg/kg): 244.82 pmoles/mg tissue wet weight | renal polyamine concentration, Spermine (Sg (syngenic) mice, 37.5 mg/kg): 207.72 pmoles/mg tissue wet weight | hepatic concentration, α-Methylspermine (Sg (syngenic) mice, 50 mg/kg): 521.41 pmoles/mg tissue wet weight | hepatic polyamine concentration, N^1-Acetylspermidine (Sg (syngenic) mice, 50 mg/kg): 45.74 pmoles/mg tissue wet weight | hepatic polyamine concentration, N^8-Acetylspermidine (Sg (syngenic) mice, 50 mg/kg): 15.33 pmoles/mg tissue wet weight | hepatic polyamine concentration, Putrescine (Sg (syngenic) mice, 50 mg/kg): 22.71 pmoles/mg tissue wet weight | hepatic polyamine concentration, Spermidine (Sg (syngenic) mice, 50 mg/kg): 780.24 pmoles/mg tissue wet weight | hepatic polyamine concentration, Spermine (Sg (syngenic) mice, 50 mg/kg): 419.39 pmoles/mg tissue wet weight | pancreatic polyamine concentration, N^8-Acetylspermidine (Sg (syngenic) mice, 50 mg/kg): 19.89 pmoles/mg tissue wet weight | pancreatic polyamine concentration, Putrescine (Sg (syngenic) mice, 50 mg/kg): 107.70 pmoles/mg tissue wet weight | pancreatic polyamine concentration, Spermidine (Sg (syngenic) mice, 50 mg/kg): 6839.92 pmoles/mg tissue wet weight | pancreatic polyamine concentration, Spermine (Sg (syngenic) mice, 50 mg/kg): 811.45 pmoles/mg tissue wet weight | renal concentration, α-Methylspermine (Sg (syngenic) mice, 50 mg/kg): 263.69 ± 49.92 pmoles/mg tissue wet weight | renal polyamine concentration, N^1-Acetylspermidine (Sg (syngenic) mice, 50 mg/kg): 48.23 pmoles/mg tissue wet weight | renal polyamine concentration, N^8-Acetylspermidine (Sg (syngenic) mice, 50 mg/kg): 21.09 pmoles/mg tissue wet weight | renal polyamine concentration, Putrescine (Sg (syngenic) mice, 50 mg/kg): 160.04 pmoles/mg tissue wet weight | renal polyamine concentration, Spermidine (Sg (syngenic) mice, 50 mg/kg): 193.19 pmoles/mg tissue wet weight | renal polyamine concentration, Spermine (Sg (syngenic) mice, 50 mg/kg): 258.42 pmoles/mg tissue wet weight | hepatic concentration, α-Methylspermine [1]: 138.89 pmoles/mg tissue wet weight | hepatic polyamine concentration, N^1-Acetylspermidine [1]: 242.81 pmoles/mg tissue wet weight | hepatic polyamine concentration, Putrescine [1]: 857.28 pmoles/mg tissue wet weight | hepatic polyamine concentration, Spermidine [1]: 717.42 pmoles/mg tissue wet weight | hepatic polyamine concentration, Spermine [1]: 62.74 pmoles/mg tissue wet weight | pancreatic concentration, α-Methylspermine [1]: 132.85 ± 26.34 pmoles/mg tissue wet weight | pancreatic polyamine concentration, N^1-Acetylspermidine [1]: 154.67 pmoles/mg tissue wet weight | pancreatic polyamine concentration, Putrescine [1]: 5691.31 pmoles/mg tissue wet weight | pancreatic polyamine concentration, Spermidine [1]: 2304.42 pmoles/mg tissue wet weight | pancreatic polyamine concentration, Spermine [1]: 42.35 pmoles/mg tissue wet weight | renal concentration, α-Methylspermine [1]: 198.34 ± 10.11 pmoles/mg tissue wet weight | renal polyamine concentration, N^1-Acetylspermidine [1]: 38.55 pmoles/mg tissue wet weight | renal polyamine concentration, N^8-Acetylspermidine [1]: 24.62 pmoles/mg tissue wet weight | renal polyamine concentration, Putrescine [1]: 58.16 pmoles/mg tissue wet weight | renal polyamine concentration, Spermidine [1]: 247.60 pmoles/mg tissue wet weight | renal polyamine concentration, Spermine [1]: 208.03 pmoles/mg tissue wet weight | hepatic concentration, α-Methylspermidine (Tg (transgenic) mice, 25 mg/kg): 197.89 ± 47.51 pmoles/mg tissue wet weight | hepatic concentration, α-Methylspermine (Tg (transgenic) mice, 25 mg/kg): 145.99 pmoles/mg tissue wet weight | hepatic polyamine concentration, N^1-Acetylspermidine (Tg (transgenic) mice, 25 mg/kg): 317.98 pmoles/mg tissue wet weight | hepatic polyamine concentration, N^8-Acetylspermidine (Tg (transgenic) mice, 25 mg/kg): 36.49 pmoles/mg tissue wet weight | hepatic polyamine concentration, Putrescine (Tg (transgenic) mice, 25 mg/kg): 872.47 pmoles/mg tissue wet weight | hepatic polyamine concentration, Spermidine (Tg (transgenic) mice, 25 mg/kg): 349.61 pmoles/mg tissue wet weight | hepatic polyamine concentration, Spermine (Tg (transgenic) mice, 25 mg/kg): 49.71 pmoles/mg tissue wet weight | pancreatic concentration, α-Methylspermine (Tg (transgenic) mice, 25 mg/kg): 130.62 ± 33.84 pmoles/mg tissue wet weight | pancreatic polyamine concentration, N^1-Acetylspermidine (Tg (transgenic) mice, 25 mg/kg): 327.88 pmoles/mg tissue wet weight | pancreatic polyamine concentration, Putrescine (Tg (transgenic) mice, 25 mg/kg): 5798.24 pmoles/mg tissue wet weight | pancreatic polyamine concentration, Spermidine (Tg (transgenic) mice, 25 mg/kg): 2449.50 pmoles/mg tissue wet weight | pancreatic polyamine concentration, Spermine (Tg (transgenic) mice, 25 mg/kg): 37.63 pmoles/mg tissue wet weight | renal concentration, α-Methylspermine (Tg (transgenic) mice, 25 mg/kg): 227.76 ± 11.79 pmoles/mg tissue wet weight | renal polyamine concentration, N^1-Acetylspermidine (Tg (transgenic) mice, 25 mg/kg): 42.95 pmoles/mg tissue wet weight | renal polyamine concentration, N^8-Acetylspermidine (Tg (transgenic) mice, 25 mg/kg): 25.16 pmoles/mg tissue wet weight | renal polyamine concentration, Putrescine (Tg (transgenic) mice, 25 mg/kg): 68.39 pmoles/mg tissue wet weight | renal polyamine concentration, Spermidine (Tg (transgenic) mice, 25 mg/kg): 156.66 pmoles/mg tissue wet weight | renal polyamine concentration, Spermine (Tg (transgenic) mice, 25 mg/kg): 209.57 pmoles/mg tissue wet weight | hepatic concentration, α-Methylspermidine [2]: 274.07 ± 18.43 pmoles/mg tissue wet weight | hepatic concentration, α-Methylspermine [2]: 203.75 pmoles/mg tissue wet weight | hepatic polyamine concentration, N^1-Acetylspermidine [2]: 180.48 pmoles/mg tissue wet weight | hepatic polyamine concentration, N^8-Acetylspermidine [2]: 14.15 pmoles/mg tissue wet weight | hepatic polyamine concentration, Putrescine [2]: 774.33 pmoles/mg tissue wet weight | hepatic polyamine concentration, Spermidine [2]: 305.70 pmoles/mg tissue wet weight | hepatic polyamine concentration, Spermine [2]: 47.47 pmoles/mg tissue wet weight | pancreatic concentration, α-Methylspermine [2]: 105.85 ± 91.76 pmoles/mg tissue wet weight | pancreatic polyamine concentration, N^1-Acetylspermidine [2]: 176.49 pmoles/mg tissue wet weight | pancreatic polyamine concentration, Putrescine [2]: 7426.10 pmoles/mg tissue wet weight | pancreatic polyamine concentration, Spermidine [2]: 2106.09 pmoles/mg tissue wet weight | pancreatic polyamine concentration, Spermine [2]: 51.89 pmoles/mg tissue wet weight | renal concentration, α-Methylspermine [2]: 224.06 ± 27.10 pmoles/mg tissue wet weight | renal polyamine concentration, N^1-Acetylspermidine [2]: 32.33 pmoles/mg tissue wet weight | renal polyamine concentration, N^8-Acetylspermidine [2]: 24.59 pmoles/mg tissue wet weight | renal polyamine concentration, Putrescine [2]: 95.60 pmoles/mg tissue wet weight | renal polyamine concentration, Spermidine [2]: 233.85 pmoles/mg tissue wet weight | renal polyamine concentration, Spermine [2]: 158.91 pmoles/mg tissue wet weight | hepatic concentration, α-Methylspermidine (Tg (transgenic) mice, 50 mg/kg): 255.30 ± 60.90 pmoles/mg tissue wet weight | hepatic concentration, α-Methylspermine (Tg (transgenic) mice, 50 mg/kg): 168.36 pmoles/mg tissue wet weight | hepatic polyamine concentration, N^1-Acetylspermidine (Tg (transgenic) mice, 50 mg/kg): 265.90 pmoles/mg tissue wet weight | hepatic polyamine concentration, Putrescine (Tg (transgenic) mice, 50 mg/kg): 1057.25 pmoles/mg tissue wet weight | hepatic polyamine concentration, Spermidine (Tg (transgenic) mice, 50 mg/kg): 196.67 pmoles/mg tissue wet weight | hepatic polyamine concentration, Spermine (Tg (transgenic) mice, 50 mg/kg): 38.02 pmoles/mg tissue wet weight | pancreatic concentration, α-Methylspermine (Tg (transgenic) mice, 50 mg/kg): 185.90 ± 20.82 pmoles/mg tissue wet weight | pancreatic polyamine concentration, N^1-Acetylspermidine (Tg (transgenic) mice, 50 mg/kg): 284.83 pmoles/mg tissue wet weight | pancreatic polyamine concentration, Putrescine (Tg (transgenic) mice, 50 mg/kg): 9027.03 pmoles/mg tissue wet weight | pancreatic polyamine concentration, Spermidine (Tg (transgenic) mice, 50 mg/kg): 3570.11 pmoles/mg tissue wet weight | pancreatic polyamine concentration, Spermine (Tg (transgenic) mice, 50 mg/kg): 70.53 pmoles/mg tissue wet weight | renal concentration, α-Methylspermine (Tg (transgenic) mice, 50 mg/kg): 319.33 ± 19.28 pmoles/mg tissue wet weight | renal polyamine concentration, N^1-Acetylspermidine (Tg (transgenic) mice, 50 mg/kg): 44.20 pmoles/mg tissue wet weight | renal polyamine concentration, N^8-Acetylspermidine (Tg (transgenic) mice, 50 mg/kg): 24.48 pmoles/mg tissue wet weight | renal polyamine concentration, Putrescine (Tg (transgenic) mice, 50 mg/kg): 91.94 pmoles/mg tissue wet weight | renal polyamine concentration, Spermidine (Tg (transgenic) mice, 50 mg/kg): 155.85 pmoles/mg tissue wet weight | renal polyamine concentration, Spermine (Tg (transgenic) mice, 50 mg/kg): 205.04 pmoles/mg tissue wet weight
